Test system: mRNA expression in BFU-E cells
Assay: mRNA-Seq of BFU-E cells cultured 4 hours with or without Dex (Table S3)
Format: cell-based, mouse
Settings: for Expression level log2((100 nM DEX)* (0 nM DEX)) / Expression of mRNA in BFU-E after 4 h 100 nM DEX (RPKM) / Expression change log2 ((100 nM DEX)/(0 nM DEX)) / Expression change log2 ((100 nM DEX)/(0 nM DEX))2: BFU-E, 4 h; for Expression change log2 ((100 nM DEX)/(0 nM DEX)): 100 nM vs 0 nM DEX
Description: FIGS. 2A-2B. The effect of glucocorticoids on miRNA and mRNA expression in BFU-E cells determined by next generation sequencing. […] Both mRNAs and miRNAs were subjected to Illumina deep sequencing. […] (B) A plot similar to that in A for expression of individual mRNAs. mRNA expression was normalized using the RPKM method, which determines the relative expression of each gene to all expressed genes by giving each gene an RPKM count (number of uniquely aligning reads per kb exon per million total reads). […]
To minimize the risk of false positive GC target genes we chose to compare only highly expressed genes (≈10,000 genes with a multiplied RPKM count >4) (Mortazavi et al., 2008).
Samples for Paired-End mRNA-Seq were prepared using the Solexa kit according to the manufacturer's instructions with the exception that we extracted 300 bp bands, before and after the PCR step (Illumina). Images acquired from the Solexa sequencer were processed through the bundled Solexa image extraction pipeline version 1.4. mRNA-Seq reads were aligned to mouse NCBI build 37 (mm9) using ELAND, Briefly, the first 32 bases of a read were used as a seed. Each matched seed was then extended up to 36 bases and scored to break any ties between multi-matches. For mRNA expression counts, unique reads in the genome that landed within any exons of NCBI gene models (v37.1) were counted. The counts were normalized by the mRNA length to get the final RPKM values (i.e. reads per KB per million reads).

[1] = BFU-E cells, 4 hours, 100 nM Dex
[2] = gene 38413 (membrane-associated ring finger (C3HC4) 3)

For `C[C@@H]1C[C@H]2[C@@H]3CCC4=CC(=O)C=C[C@]4(C)[C@@]3(F)[C@@H](O)C[C@]2(C)[C@@]1(O)C(=O)CO` [Dex, dexamethasone], the “Upregulation of Ddit4” value (BFU-E cells, 4 hours) was > 8 fold, the “Genes differentially expressed (more than a factor of 2)” value [1] was 195 genes and the “Genes down regulated (more than a factor of 2)” value [1] was 112 genes. The “Genes up regulated (more than a factor of 2)” value [1] was 83 genes, the “Expression level log2((100 nM DEX)* (0 nM DEX))” value [2] was 4.94 and the “Expression of mRNA in BFU-E after 4 h 100 nM DEX (RPKM)” value (from here on “Expression of mRNA in BFU-E”) [2] was 8.25 RPKM. The “Expression of mRNA in BFU-E” value (gene 0610040J01Rik) was 14.77 RPKM, the “Expression change log2 ((100 nM DEX)/(0 nM DEX))” value (gene 0610040J01Rik) was 2.84 and the “Expression of mRNA in BFU-E” value (gene Acp5) was 20.40 RPKM. The “Expression change log2 ((100 nM DEX)/(0 nM DEX))” value (gene Acp5) was 2.70, the “Expression of mRNA in BFU-E” value (gene Ampd3) was 15.71 RPKM and the “Expression of mRNA in BFU-E” value (gene Ank) was 48.60 RPKM. The “Expression change log2 ((100 nM DEX)/(0 nM DEX))” value (gene Ank) was 2.06, the “Expression change log2 ((100 nM DEX)/(0 nM DEX))2” value (gene Aqp3) was 1.34 and the “Expression of mRNA in BFU-E” value (gene Aqp3) was 6.98 RPKM. The “Expression of mRNA in BFU-E” value (gene Arhgef3) was 16.21 RPKM, the “Expression change log2 ((100 nM DEX)/(0 nM DEX))” value (gene Arhgef3) was 2.88 and the “Expression level log2((100 nM DEX)* (0 nM DEX))” value (gene Atp2b4) was 9.79. For the same compound, the “Expression of mRNA in BFU-E” value (gene Atp2b4) was 43.89 RPKM, the “Expression of mRNA in BFU-E” value (gene Bcl2) was 6.45 RPKM and the “Expression change log2 ((100 nM DEX)/(0 nM DEX))” value (gene Bcl2) was 1.69. For the same compound, the “Expression of mRNA in BFU-E” value (gene Cables1) was 4.90 RPKM, the “Expression change log2 ((100 nM DEX)/(0 nM DEX))2” value (gene Ccnd1) was 1.34 and the “Expression level log2((100 nM DEX)* (0 nM DEX))” value (gene Ccnd1) was 3.76. For the same compound, the “Expression of mRNA in BFU-E” value (gene Ccnd1) was 5.86 RPKM, the “Expression level log2((100 nM DEX)* (0 nM DEX))” value (gene Cd59a) was 2.18 and the “Expression of mRNA in BFU-E” value (gene Cd59a) was 3.15 RPKM. The “Expression of mRNA in BFU-E” value (gene Clca1) was 7.54 RPKM, the “Expression change log2 ((100 nM DEX)/(0 nM DEX))” value (gene Clca1) was 2.07 and the “Expression level log2((100 nM DEX)* (0 nM DEX))” value (gene Clcn2) was 5.04. For the same compound, the “Expression of mRNA in BFU-E” value (gene Clcn2) was 8.78 RPKM, the “Expression level log2((100 nM DEX)* (0 nM DEX))” value (gene Clint1) was 15.15 and the “Expression of mRNA in BFU-E” value (gene Clint1) was 285.78 RPKM. The “Expression of mRNA in BFU-E” value (gene Clstn1) was 70.51 RPKM, the “Expression change log2 ((100 nM DEX)/(0 nM DEX))” value (gene Clstn1) was 1.72 and the “Expression level log2((100 nM DEX)* (0 nM DEX))” value (gene Cyth3) was 11.35. For the same compound, the “Expression of mRNA in BFU-E” value (gene Cyth3) was 75.31 RPKM, the “Expression of mRNA in BFU-E” value (gene Ddit4) was 20.23 RPKM and the “Expression change log2 ((100 nM DEX)/(0 nM DEX))” value (gene Ddit4) was 3.08. The “Expression level log2((100 nM DEX)* (0 nM DEX))” value (gene E430018J23Rik) was 2.10, the “Expression of mRNA in BFU-E” value (gene E430018J23Rik) was 3.02 RPKM and the “Expression of mRNA in BFU-E” value (gene Egln3) was 16.47 RPKM. For the same compound, the “Expression change log2 ((100 nM DEX)/(0 nM DEX))” value (gene Egln3) was 3.00, the “Expression of mRNA in BFU-E” value (gene Egr1) was 18.06 RPKM and the “Expression of mRNA in BFU-E” value (gene Fam46a) was 6.44 RPKM. For the same compound, the “Expression change log2 ((100 nM DEX)/(0 nM DEX))” value (gene Fam46a) was 1.68, the “Expression of mRNA in BFU-E” value (gene Fam46c) was 13.90 RPKM and the “Expression level log2((100 nM DEX)* (0 nM DEX))” value (gene Fam55c) was 5.91. For the same compound, the “Expression of mRNA in BFU-E” value (gene Fam55c) was 11.20 RPKM, the “Expression of mRNA in BFU-E” value (gene Fam83g) was 8.67 RPKM and the “Expression level log2((100 nM DEX)* (0 nM DEX))” value (gene Fes) was 2.34. For the same compound, the “Expression of mRNA in BFU-E” value (gene Fes) was 3.48 RPKM, the “Expression of mRNA in BFU-E” value (gene Fkbp5) was 74.76 RPKM and the “Expression change log2 ((100 nM DEX)/(0 nM DEX))” value (gene Fkbp5) was 1.71. For the same compound, the “Expression level log2((100 nM DEX)* (0 nM DEX))” value (gene Fkbp11) was 9.88, the “Expression of mRNA in BFU-E” value (gene Fkbp11) was 44.44 RPKM and the “Expression of mRNA in BFU-E” value (gene Frmd4a) was 28.77 RPKM. The “Expression change log2 ((100 nM DEX)/(0 nM DEX))” value (gene Frmd4a) was 2.03, the “Expression level log2((100 nM DEX)* (0 nM DEX))” value (gene Glul) was 12.54 and the “Expression of mRNA in BFU-E” value (gene Glul) was 110.54 RPKM. For the same compound, the “Expression change log2 ((100 nM DEX)/(0 nM DEX))2” value (gene Gm129) was 1.01, the “Expression level log2((100 nM DEX)* (0 nM DEX))” value (gene Gm129) was 2.29 and the “Expression of mRNA in BFU-E” value (gene Gm129) was 3.14 RPKM. The “Expression of mRNA in BFU-E” value (gene Gna14) was 3.37 RPKM, the “Expression level log2((100 nM DEX)* (0 nM DEX))” value (gene Gng13) was 3.81 and the “Expression of mRNA in BFU-E” value (gene Gng13) was 5.76 RPKM. The “Expression of mRNA in BFU-E” value (gene Gsta4) was 9.00 RPKM, the “Expression change log2 ((100 nM DEX)/(0 nM DEX))” value (gene Gsta4) was 2.60 and the “Expression of mRNA in BFU-E” value (gene Hif3a) was 101.46 RPKM. The “Expression change log2 ((100 nM DEX)/(0 nM DEX))” value (gene Hif3a) was 1.38, the “Expression of mRNA in BFU-E” value (gene Hopx) was 13.32 RPKM and the “Expression change log2 ((100 nM DEX)/(0 nM DEX))” value (gene Hopx) was 1.82. The “Expression of mRNA in BFU-E” value (gene Hp) was 4.41 RPKM, the “Expression change log2 ((100 nM DEX)/(0 nM DEX))2” value (gene Ier2) was 1.05 and the “Expression level log2((100 nM DEX)* (0 nM DEX))” value (gene Ier2) was 10.07. For the same compound, the “Expression of mRNA in BFU-E” value (gene Ier2) was 47.27 RPKM, the “Expression level log2((100 nM DEX)* (0 nM DEX))” value (gene Ier3) was 3.80 and the “Expression of mRNA in BFU-E” value (gene Itgb3) was 7.39 RPKM. The “Expression change log2 ((100 nM DEX)/(0 nM DEX))” value (gene Itgb3) was 2.37.
